Patent US20240245677A1, “SELECTED COMPOUNDS FOR TARGETED DEGRADATION OF BRD9” (C4 THERAPEUTICS, INC., priority 2021, published 2024)

What was measured:
[1] = system: cryopreserved hepatocytes from beagle dogs; test: Dog Hepatocyte Stability Assay; type: in vitro ADME
Protocol: (§1) The metabolic stability of Compound 1 was evaluated using cryopreserved hepatocytes from mice, rats, dogs, cynomolgus monkeys, and humans.
(§2) 50 μL of 1 mM intermediate solutions for each test compound was prepared by adding 5 μL of 10 mM stock solution to 45 μL of a 1:1 mixture of water and acetonitrile. A 2 μM working stocks for each test compound were prepared in incubation media, InvitroGRO™ KHB (Bio IVT, Westbury, NY, USA), by adding 2 μL of 1 mM intermediate stock to 998 μL of incubation media.
(§3) To thaw the hepatocytes, InvitroGRO™ HT thawing medium (BioIVT, Westbury, NY, USA) was prewarmed to 37° C., and 48 mL of warmed thawing medium was transferred to a sterile 50 mL conical tube. The hepatocyte vial was removed from the liquid nitrogen Dewar, and gently thawed in a water bath at 37° C. for 1-2 minutes, then the contents of the vial were emptied into a conical tube with prewarmed InvitroGRO HT medium. 1 mL of prewarmed InvitroGRO HT medium was added to each emptied hepatocyte vial to resuspend any remaining cells, and the contents were pipetted into the hepatocyte suspension. The tube containing the hepatocyte suspension was centrifuged at 50*g for 5 minutes. The supernatant was removed carefully, and the remaining pellet was resuspended by adding 1 mL of incubation media, InvitroGRO KHB, and gently shaking until there were no clumps.
(§4) Cell viability was determined using the trypan blue method. 25 μL of hepatocyte cell suspension was added to a trypan blue (TB) solution (containing 775 μL InvitroGRO KHB and 200 μL of Trypan Blue). Cell count was taken using a hemacytometer.
(§5) For mouse hepatocytes, 200 μL of hepatocytes (0.8×10^6 cells/mL) were added to the wells of a 48 well plate (Catalog No. 92048, TPP Techno Plastic Products AG, Trasadingen, Switzerland) and pre-incubated for 30 minutes at 37° C. For rat, dog, monkey, […], 200 μL of hepatocytes (2×10^6 cells/mL) were added to the wells of a 48 well plate (Catalog No. 92048, TPP Techno Plastic Products AG, Trasadingen, Switzerland) and pre-incubated for 30 minutes at 37° C.
(§6) For all species of hepatocytes, once the pre-incubation period was complete, 200 μL of 2 μM working stock of test compound was added to the wells of the plate, and the plate was vortexed on a Vibramax™ 100 (P/N 544-21200-00, Heidolph Instruments GmbH & Co. KG, Schwabach, Germany) at 500 rpm in a 37° C. CO2 incubator (Model No. 51026280, ThermoFisher Scientific, Waltham, MA, USA). At each time point of 0, 15, 30, 60, 90, and 120 minutes, 50 μL of incubation mixture was precipitated with 200 μL of acetonitrile containing internal standard.
(§7) At the end of the experiment, the samples were centrifuged at 4000 rpm for 10 minutes. […]

[2] = Dog Hepatocyte Stability Assay; type: in vitro ADME; details: beagle, cryopreserved hepatocytes
Protocol: as §1, §2, §3, §4, §5, §6, §7

[3] = molecular target: hERG potassium channels (Homo sapiens, UniProt Q12809); test: cell-based
Chain of hERG potassium channels (Q12809 whole entry): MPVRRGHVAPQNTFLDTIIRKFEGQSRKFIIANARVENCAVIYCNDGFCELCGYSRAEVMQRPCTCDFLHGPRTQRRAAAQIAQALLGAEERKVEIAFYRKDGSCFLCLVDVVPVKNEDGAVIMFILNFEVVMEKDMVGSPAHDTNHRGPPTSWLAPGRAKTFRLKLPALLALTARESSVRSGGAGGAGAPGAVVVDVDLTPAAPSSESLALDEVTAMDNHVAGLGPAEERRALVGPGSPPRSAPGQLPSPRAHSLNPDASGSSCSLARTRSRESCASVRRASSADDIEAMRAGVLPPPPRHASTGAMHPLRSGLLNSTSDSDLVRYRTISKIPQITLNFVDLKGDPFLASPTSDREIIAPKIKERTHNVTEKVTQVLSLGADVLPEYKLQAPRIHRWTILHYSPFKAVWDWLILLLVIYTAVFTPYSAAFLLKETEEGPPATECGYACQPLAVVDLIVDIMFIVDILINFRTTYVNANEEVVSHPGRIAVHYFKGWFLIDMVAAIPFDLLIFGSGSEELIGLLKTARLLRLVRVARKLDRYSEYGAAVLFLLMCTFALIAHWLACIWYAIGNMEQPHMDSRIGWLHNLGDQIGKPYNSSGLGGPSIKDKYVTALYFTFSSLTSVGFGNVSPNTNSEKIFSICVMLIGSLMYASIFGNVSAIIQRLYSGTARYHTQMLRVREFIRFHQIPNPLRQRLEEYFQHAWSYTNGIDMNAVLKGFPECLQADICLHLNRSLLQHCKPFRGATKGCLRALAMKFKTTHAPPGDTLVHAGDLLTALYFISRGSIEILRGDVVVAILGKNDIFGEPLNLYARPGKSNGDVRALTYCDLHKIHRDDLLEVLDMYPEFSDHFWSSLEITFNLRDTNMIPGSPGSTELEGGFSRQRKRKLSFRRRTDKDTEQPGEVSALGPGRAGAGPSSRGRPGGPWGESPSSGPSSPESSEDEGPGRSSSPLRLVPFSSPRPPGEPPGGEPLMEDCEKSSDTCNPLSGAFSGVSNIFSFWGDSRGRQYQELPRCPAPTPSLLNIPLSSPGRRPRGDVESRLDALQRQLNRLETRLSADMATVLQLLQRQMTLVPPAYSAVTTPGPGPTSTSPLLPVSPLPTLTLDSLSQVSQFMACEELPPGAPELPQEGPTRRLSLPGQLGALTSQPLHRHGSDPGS
Protocol: The effects of Compound 1 on the hERG potassium channels were evaluated using the automated patch clamp method (SyncroPatch® 384PE, Nanion Technologies GmbH, Munich, Germany).
CHO cells stably expressing hERG potassium channels (Sophion Bioscience, Inc. Bedford, MA, USA) were used for this test. The cells were cultured in a humidified and air-controlled (5% CO2) incubator at 37° C. The CHO hERG cell culture medium was 500 mL Ham's F-12 medium (Catalog No. 31765035, Invitrogen, Waltham, MA, USA), 50 mL HyClone™ Fetal Bovine Serum (Catalog No. SV30087.03, Cytiva, Marlborough, MA, USA), 1 mL Geneticin™ (G418 Sulfate, 50 mg/mL)) (Catalog No. 10131027, Invitrogen, Waltham, MA, USA), and 1 mL Hygromycin B (50 mg/mL) (Catalog No. 10687010, Invitrogen, Waltham, MA, USA).
The CHO cells were at least two days after plating and more than 75% confluent were used. Before testing, cells were harvested using TrypLE™ and resuspended in the physiological solution at the room temperature.
The solutions in Table 9 were used for the electrophysiological recordings. The physiological solution and external solution were prepared at least one month prior to the experiment. The intracellular solution was prepared in batches, aliquoted, and stored at 4° C. until use.
The stock solutions were further diluted into external solution to achieve final concentrations for testing. A visual check for precipitation was conducted before testing. Final DMSO concentration in external solution was not more than 0.30% for the test compounds.
The voltage command protocol started from a holding potential of −80 mV. Then, the voltage was first stepped to −50 mV for 80 ms for leak subtraction, and then stepped to +20 mV for 4,800 ms to open hERG channels. After that, the voltage was stepped back down to −50 mV for 5,000 ms, causing a “rebound” or tail current, which was measured and collected for data analysis. Finally, the voltage was stepped back to the holding potential of −80 mV for 1,000 ms. This voltage command protocol was repeated every 20,000 msec, and performed continuously during the test of vehicle control and test compounds.
This SyncroPatch hERG assay was conducted at room temperature. The Setup, Prime Chip, Catch and Seal Cells, Amplifier Settings, Voltage and Application Protocols were established with […] (Nanion Technologies GmbH, Munich, Germany). One addition of 40 μL of vehicle was applied, followed by a baseline period of 300 s. Then 40 μL doses of test compounds were added. The exposure of test compound at each concentration was no less than 300 s. The recording for the whole process passed quality control or the well was abandoned and the compound was retested, all automatically set by PatchControl (Nanion Technologies, Munich, Germany). Five concentrations (0.30 μM, 1.00 μM, 3.00 μM, 10.00 μM and 30.00 μM) were tested for each compound. A minimum of 2 replicates per concentration were obtained.
Data analysis was carried out using DataControl® (Nanion Technologies GmbH, Munich, Germany), EXCEL 2013 (Microsoft Corporation, Redmond, WA, USA) and GraphPad Prism 5.0 (GraphPad Software, LLC, San Diego, CA, USA).
Within each recording well, percent of control values were calculated for each test compound concentration current response based on peak current in presence of reference control (current response/peak current)×100%. The Dose-Response curves were fit to the standard Hill equation as shown below: […]
where X is the logarithm of concentration, Ipost cpd/Ipre cpd is the normalized peak current amplitude, Top is 1, and Bottom is equal to 0. Curve-fitting and IC50 calculations were performed by GraphPad Prism 5.0.

Structure (SMILES): COc1cc(-c2cn(C)c(=O)c(C)c2C)cc(OC)c1CN1CC[C@H](N2CCN(c3ccc(N[C@H]4CCC(=O)NC4=O)cc3F)CC2)C(F)(F)C1 [Compound 1, (S)-3-((4-(4-((S)-1-(2,6-dimethoxy-4-(1,4,5-trimethyl-6-oxo-1,6-dihydropyridin-3-yl)benzyl)-3,3-difluoropiperidin-4-yl)piperazin-1-yl)-3-fluorophenyl)amino)-piperidine-2,6-dione]
- CLh int in vivo [1]: 11.48 mL/min/Kg body wt.
- CLhb scaled well stirred [1]: 8.6 mL/min/kg body wt.
- half-life at 1 µM [2]: > 2 h
- hepatocyte CLint at 1 µM ([2]; read-out: CL int cells): 1.49 µL/min/1e6 cells
- IC50 [3]: 2910 nM
- HillSlope ([3]; human): 1.26
- POI (%) ([3]; human, 0.3 µM): 12.42%
- POI (%) ([3]; human, 1 µM): 14.61%
- POI (%) ([3]; human, 3 µM): 22.59%
- POI (%) ([3]; human, 10 µM): 19.49%
- POI (%) ([3]; human, 30 µM): 21.92%
